Data on 3 molecules can be found in patent US12514834B2, “Pharmaceutical composition for treating and/or preventing renal cystic ciliopathy” (Kyoto University, priority 2022, dated 2026).

Data set [1] deals with cysts of collecting duct organoids from PKD1 knockout iPS cells (1383D2 cell line). In words: Cyst enlargement inhibition in cysts from artificial collecting duct organoids induced from PKD1 knockout iPS cells. It is filed as cell-based, human. As to conditions: 0.1 μM compound, with 2.5 μM AVP, 3 days of culturing, vs 0.1% DMSO; FIGS. 1-5. The procedure:
Using PKD1 knockout iPS cells of the 1383D2 cell line, artificial collecting duct organoids with cystic structures were induced by the above method. The following protocol was used to examine compounds that inhibit cyst enlargement. • 1. Organoids in which cyst formation was occurring were collected in tubes. • 2. Medium was removed and 2 ml of Cell Recovery Solution was added. (4° C., 30 minutes) • 3. Gel was dissolved by gentle pipetting with a P-1000 pipetteman and then centrifuged. (500 g, 2 minutes) • 4. After removing the supernatant from 3 and adding 5 ml of FBS-containing medium (STO medium), cysts were separated from the organoids by pipetting. • 5. Using a stereomicroscope, cysts were collected in 15 ml tubes. • 6. The supernatant was removed, and then 2 ml of Accutase was added to perform treatment at 37° C. for 5 minutes. • 7. Cells were dissociated down to single cells by pipetting with a P-1000 pipetteman. • 8. After filtering, cells were counted. • 9. After cell counting, a cell suspension containing the required number of cells was transferred to a tube, and then 5 ml of FBS-containing medium (STO medium) was added to stop the Accutase reaction. To seed at 5×10^4 cells/well, the amount of the cell suspension required was calculated. • 10. Pellets were prepared by centrifugation (200 g, 5 minutes). • 11. The supernatant was thoroughly removed, and then DMEM/F12+B27 w/o V.A. medium (10% Afamin/Wnt3a CM, 200 ng/ml R-Spondin 1, 200 ng/ml FGF1, 10 μM Forskolin, 2.5 μM AVP, 10 μM Y27632) was added for suspension. To seed at 5×10^4 cells/well, the amount of medium required was calculated. • 12. The cell suspension from 11 was seeded at 5×10^4 cells/well into pre-prepared 50% Matrigel plates. The cell suspension was added slowly to avoid disrupting the Matrigel. • 13. […] Nine (9) locations inside the wells were photographed using a 4× objective lens under a fluorescence microscope (Keyence, BZ-X700), the cyst area was measured using a BZ-X Analyzer, and then the average value was calculated.
Cyst enlargement-inhibiting compounds to be evaluated in step 14 were added. […]

The test system of data set [2] is Pkd1flox/flox:Ksp-Cre mice (ADPKD model). In words: ATRA treatment of ADPKD model mice. The class given is in vivo, mouse. From the text:
Pkd1^flox/flox:Ksp-cre mice, which are ADPKD model mice, develop numerous cysts progressively after birth and die at approximately 14 days of age due to renal failure.
Mouse lineages were maintained with heterozygous Pkd1^flox/+:Ksp-Cre mice, and Pkd1^flox/flox:Ksp-cre mice were generated by mating mice of the same lineage.
On postnatal day 3, Pkd1^flox/flox:Ksp-cre mice (Cystic) and Pkd1^flox/+:Ksp-Cre mice (Non-cystic) were intraperitoneally administered with ATRA (Sigma, #R2625) dissolved in sunflower oil containing 2% DMSO (solvent) to achieve a dose of 10 mg/kg. A group of mice administered with only the solvent intraperitoneally was served as a negative control. Mice were euthanized on postnatal day 9, and renal tissues and blood samples were collected.
BUN in mouse serum was measured using an UN-L kit (Serotec, #A667-00).
Kidneys were fixed in 4% paraformaldehyde solution, and 4 μm-thick paraffin sections were prepared. After deparaffinization, HE staining was performed and renal tissues were photographed under an optical microscope. Cystic index was calculated by total cystic area/total renal tissue area×100 using image analysis and measurement software (WinROOF, Mitani Corporation).
Therapeutic effects of ATRA on ADPKD model mice Since ATRA has already been used as a therapeutic agent for Acute Promyelocytic Leukemia (APL) patients, the efficacy of ATRA in ADPKD model mice was examined from a drug repositioning perspective. To reflect the in vitro results of ATRA on collecting duct cyst enlargement in in vivo, Pkd1^flox/flox:Ksp-Cre mice, in which the Pkd1 allele is conditionally inactivated under expression of kidney-specific Ksp-Cre recombinase in the distal nephron segments and collecting ducts, were used. The mice develop renal failure from birth due to progressive cyst formation and die about 2 weeks after birth. Because Ksp cadherin is specifically expressed in the collecting ducts and distal tubules, cysts originating from the collecting ducts and distal tubules are formed in these ADPKD model mice. ATRA was administered at 10 mg/kg intraperitoneally to mice on postnatal day 3 (P3), and mice were then sacrificed at P9 (FIG. 12).

In data set [3] the test system is cyst cells from PKD1 knockout iPS cell-derived collecting duct organoids. The data set is described as follows: Microarray comparison of gene expression in cyst cells cultured with and without TTNPB (GSEA, heat maps). It is filed as cell-based, human. The conditions noted are these: 0.1 μM TTNPB, cysts on day 5 of culture. The procedure: For comprehensive profiling of transcripts encoding human proteins, microarray analysis was performed at Filgen using the Human 8×60K LncRNA expression array (ArrayStar). Labeling of samples and array hybridization were performed according to the Agilent One-Color Microarray-Based Gene Expression Analysis protocol (Agilent Technology). Data were collected using Agilent's Feature Extraction software. Raw signal intensities were normalized using the quantile normalization method of GeneSpring GX v12.1.
To clarify the mechanism of action of TTNPB, gene expression in cyst cells cultured with and without TTNPB was compared by microarray (FIGS. 6 and 7).

Where [4] appears, read: 10 mg/kg intraperitoneally on P3, P9, FIG. 14.

Structures are written as SMILES.

In the case of `CC1(C)CCC(C)(C)c2cc(NC(=O)c3ccc(C(=O)O)cc3)ccc21` [AM80, tamibarotene], in data set [1], the “cyst size (cyst area)” value was “significantly reduced the cyst sizes”.

In the case of `CC1=C(/C=C/C(C)=C/C=C/C(C)=C/C(=O)O)C(C)(C)CCC1` [ATRA, all-trans retinoic acid], the “cyst size (cyst area)” value in data set [1] is listed as “reduced the cyst sizes”. Besides, in data set [2] (setting [4]), the “cyst formation on the cortical side (HE-stained renal tissue sections)” value is given as “tended to inhibit cyst formation on the cortical side” and the “kidney size (HE-stained renal tissue sections)” value is on record as “suppressed the increase in kidney size”. Further, the “ratio of kidney weights to body weight (2KW/BW)” value in data set [2] (10 mg/kg intraperitoneally on P3, P9, vs solvent, FIG. 13) was “significantly decreased”. The “cystic index (proportion of the area occupied by cysts in the renal tissue)” value in data set [2] (10 mg/kg intraperitoneally on P3, P9, vs solvent, FIG. 15) was “significantly reduced”. The body weight entry in data set [2] (10 mg/kg intraperitoneally on P3, sacrificed at P9, FIG. 12) is reported as “No significant body weight loss”. In data set [2] (10 mg/kg intraperitoneally on P3, serum at P9, vs control mice treated with solvent, FIG. 16), the “BUN (blood urea nitrogen) levels” value was “significantly lower”.

Regarding `C/C(=C\c1ccc(C(=O)O)cc1)c1ccc2c(c1)C(C)(C)CCC2(C)C` [TTNPB, 4-[(E)-2-(5,6,7,8-tetrahydro-5,5,8,8-tetramethyl-2-naphthalenyl)-1-propenyl]benzoic acid], the “cyst size (cyst area)” value in data set [1] was “significant reduction in cyst size”. Also, in data set [3] (FIG. 8), the “TGFβ signaling pathway (GSEA)” value was “inhibited”. The “expression levels of MMP1, SLC2A1, CFTR, and HMGCR” value in data set [3] (heat map FIG. 9) is on record as “decreased”. The “expression of cellular senescence marker genes such as CDKN2B (p15)” value in data set [3] (heat map FIG. 10) is on record as “promotes the expression”.
